From patent publication US9133220B2, “Boron-containing 5-arylidene-3,5-dihydro-4H-imidazol-4-ones” (Evrogen Joint Stock Company, priority 2012, dated 2015)
In brackets after ≈: the same amount, converted by molar mass. Like-named read-outs stand apart in the source and are kept apart here. Marks after values point to notes of the source that are not given here. One block for each molecule: values may come before it.

What was measured:
[1] = Measuring spectral characteristics (absorption and emission maxima, extinction coefficients); assay type: physicochemical
Method: (§1) To measure spectral characteristics of some compounds with the formula I weighted portions of compounds p-NH2-BDI-BF2, p-dimethylamino-BDI-BF2, p-diethylamino-BDI-BF2, p-HOBDI-BF2, di-F-p-HOBDI-BF2, p-diethylamino-BDI-dimethylaminoethenyl-BF2 and p-HOBDI-dimethylaminoethenyl-BF2 were dissolved in water, ethanol and acetonitrile. Absorption spectra were measured on Varian Cary 100 Bio spectrophotometer, fluorescence spectra were measured on Varian Cary Eclipse scanning spectrofluorometer.
The values of absorption and emission maxima and molar extinction coefficients for examples of compounds with the formula I in the indicated solvents are listed in a Table 2. Emission peaks of the investigated compounds settle into a rather wide range from 485 nm for p-HOBDI-BF2 to 598 nm for p-diethylamino-BDI-dimethylamino-ethenyl-BF2.

[2] = Quantum yield of fluorescence; assay type: physicochemical
Method: as §1
The compounds p-NH2-BDI-BF2, p-HOBDI-BF2 (anionic form), di-Fp-HOBDI-BF2 (anionic form), p-diethylamino-BDI-dimethylaminoethenyl-BF2, p-HOBDI-dimethylaminoethenyl-BF2 (anionic form) have rather high quantum yields of fluorescence in water solutions.

[3] = cited from earlier work; for emission peak: widely used fluorescent dyes, approximate values
[4] = Determination of solubility in water; assay type: physicochemical; conditions: thermodynamic from solid
Method: To determine the solubility in water of compounds an excess amount of analyzed substance was put in a known volume of a solvent and stirred for 5 hours at r.t. The obtained mixture was centrifuged, and the concentration of a compound in mother liquor was measured with spectrophotometric method on the base of molar extinction coefficients data.

[5] = Photoacidity: acidity constants of ground and excited states; assay type: physicochemical
Excerpt: Photoacidity is an ability to dissociate with formation of H^+ ion under the action of visible light. Photoacidity is characterized by constants of acidity of ground and excited states. Förster's equation describes the relationship between acidity constants of ground and excited states and energy of transfer between the states.
For compounds of the formula I, containing phenolic OH-group, high photoacidity—an ability to dissociate with formation of H^+ ion under the action of visible light—is a distinctive feature. […] (^1)((Z)-4-(2-(difluoroboryl)-3,5-difluoro-4-hydroxybenzylidene)-1,2-dimethyl-1H-imidazole-5(4H)-one)

[6] = Chemical stability at high pH; assay type: physicochemical; conditions: pH 11, 70° C., 2 hours
Excerpt: Compound of the general formula I differ from the majority of fluorescent dyes because of their high resistance to the action of different chemical factors—nucleophiles and high pH. […] It should be noted, that long-time heating in alkaline conditions may result in exchange of fluorine atoms from difluoroboryl residue to hydroxyl groups, however no significant change in absorption and fluorescence spectra is observed.

[7] = water, neutral form line, starred: only emission of deprotonated form can be measured due to high photoacidity
[8] = acidic and neutral pH values, r.t.
[9] = acidic and neutral values of pH

Compound: O=C1NC=N/C1=C\c1cccn1B(F)F [(Z)-4-((1-(difluoroboryl)-1H-pyrrol-2-yl)methylene)-1H-imidazole-5(4H)-one]
- Quantum yield of fluorescence ([3]; comparison values for known fluorophores): 0.81

Compound: CCN1C(=CC=CC2=[N+](CCCCCC(=O)O)c3ccc(S(=O)(=O)O)cc3C2(C)C)C(C)(C)c2cc(S(=O)(=O)[O-])ccc21 [Cy3]
- emission peak [3]: 570 nm

Compound: CCCCCCCCCCCCCCCCCCN1/C(=C\C=C\c2oc3ccccc3[n+]2CCCCCCCCCCCCCCCCCC)Oc2ccccc21.[O-][Cl+3]([O-])([O-])[O-] [DiO]
- emission peak [3]: 501 nm

Compound: CC1=N/C(=C\c2cc(F)c(O)cc2B(F)F)C(=O)N1C [F-p-HOBDI-BF2, (Z)-4-(2-(difluoroboryl)-5-fluoro-4-hydroxybenzylidene)-1,2-dimethyl-1H-imidazole-5(4H)-one]
- Abs. peak ([1]; acetonitrile, anionic form): 522 nm
- Emis. peak ([1]; acetonitrile, anionic form): 543 nm
- Abs. peak ([1]; acetonitrile, neutral form): 397 nm
- Emis. peak ([1]; acetonitrile, neutral form): 468 nm
- ext. coef. ([1]; acetonitrile, neutral form): 28000 M⁻¹ cm⁻¹
- shift of emission and absorption spectra with change of more polar solvent (water) to less polar (ethanol, acetonitrile) ([1]; anionic form): bathochromic shift
- Abs. peak ([1]; ethanol, anionic form): 505 nm
- Emis. peak ([1]; ethanol, anionic form): 537 nm
- ext. coef. ([1]; ethanol, anionic form): 48000 M⁻¹ cm⁻¹
- Abs. peak ([1]; ethanol, neutral form): 408 nm
- Emis. peak ([1]; ethanol, neutral form): 482 nm
- ext. coef. ([1]; ethanol, neutral form): 24000 M⁻¹ cm⁻¹
- shift of emission and absorption spectra with change of more polar solvent (water) to less polar (ethanol, acetonitrile) ([1]; neutral form): hypsochromic shift
- Abs. peak ([1]; water, anionic form): 478 nm
- Emis. peak ([1]; water, anionic form): 528 nm
- ext. coef. ([1]; water, anionic form): 38300 M⁻¹ cm⁻¹
- Abs. peak ([1]; water, neutral form): 392 nm
- ext. coef. ([1]; water, neutral form): 31500 M⁻¹ cm⁻¹
- Emis. peak [1, 7]: 528* nm
- solubility at 5 h [4, 8]: ~1000 µM (≈ 282 µg/mL)
- solubility at 5 h [4, 9]: 1 µM (≈ 0.282 µg/mL)

Compound: O=C1OC2(c3ccc(O)cc3Oc3cc(O)ccc32)c2ccc(N=C=S)cc21 [FITC]
- emission peak [3]: 521 nm

Compound: CC1=N/C(=C\c2ccc(O)cc2)C(=O)N1C [p-HOBDI, (Z)-4-(4-hydroxybenzylidene)-1,2-dimethyl-1H-imidazole-5(4H)-one]
- Quantum yield ([3]; p-HOBDI, from D. Mandal et al., J. Phys. Chem. B 108, 1102 (2004), spans water, ethanol, acetonitrile columns): Quantum yield is less than 10^−4

Compound: CN(C)/C=C/C1=NC(=C\c2ccc(O)cc2B(F)F)/C(=O)N1C [p-HOBDI-dimethylaminoethenyl-BF2, (Z)-4-(2-(difluoroboryl)-4-hydroxybenzylidene)-2-((E)-2-(dimethylamino)vynil)-1-methyl-1H-imidazole-5(4H)-one]
- Abs. peak ([1]; acetonitrile, anionic form): 555 nm
- Emis. peak ([1]; acetonitrile, anionic form): 598 nm
- Abs. peak ([1]; acetonitrile, neutral form): 444 nm
- Emis. peak ([1]; acetonitrile, neutral form): 502 nm
- shift of emission and absorption spectra with change of more polar solvent (water) to less polar (ethanol, acetonitrile) ([1]; anionic form): bathochromic shift
- Abs. peak ([1]; ethanol, anionic form): 529 nm
- Emis. peak ([1]; ethanol, anionic form): 587 nm
- Abs. peak ([1]; ethanol, neutral form): 450 nm
- Emis. peak ([1]; ethanol, neutral form): 505 nm
- shift of emission and absorption spectra with change of more polar solvent (water) to less polar (ethanol, acetonitrile) ([1]; neutral form): hypsochromic shift
- Abs. peak ([1]; water, anionic form): 502 nm
- Emis. peak ([1]; water, anionic form): 570 nm
- Abs. peak ([1]; water, neutral form): 467 nm
- Emis. peak ([1]; water, neutral form): 521 nm
- Quantum yield of fluorescence ([2]; water, anionic form): 0.27

Compound: CC1=N/C(=C\c2ccc(N)cc2B(F)F)C(=O)N1C [p-NH2-BDI-BF2, (Z)-4-(4-amino-2-(difluoroboryl)benzylidene)-1,2-dimethyl-1H-imidazole-5(4H)-one]
- shift of emission and absorption spectra with change of more polar solvent (water) to less polar (ethanol, acetonitrile) [1]: hypsochromic shift
- Abs. peak ([1]; acetonitrile): 451 nm
- Emis. peak ([1]; acetonitrile): 518 nm
- Abs. peak ([1]; ethanol): 476 nm
- Emis. peak ([1]; ethanol): 532 nm
- Abs. peak ([1]; water): 475 nm
- Emis. peak ([1]; water): 532 nm
- Quantum yield of fluorescence ([2]; acetonitrile): 0.62
- Quantum yield of fluorescence ([2]; ethanol): 0.64
- Quantum yield of fluorescence ([2]; water): 0.70

Results, then the molecule that gave them:

- shift of emission and absorption spectra with change of more polar solvent (water) to less polar (ethanol, acetonitrile) [1]: hypsochromic shift
- Abs. peak ([1]; acetonitrile): 510 nm
- Emis. peak ([1]; acetonitrile): 583 nm
- Abs. peak ([1]; ethanol): 525 nm
- Emis. peak ([1]; ethanol): 588 nm
- Abs. peak ([1]; water): 525 nm
- Emis. peak ([1]; water): 598 nm
- Quantum yield of fluorescence ([2]; water): 0.35
Compound: CCN(CC)c1ccc(/C=C2N=C(/C=C/N(C)C)N(C)C\2=O)c(B(F)F)c1 [(Z)-4-(4-(diethylamino)-2-(difluoroboryl)benzylidene)-2-((E)-2-(dimethylamino)vynil)-1-methyl-1H-imidazole-5(4H)-one]

- Abs. peak ([1]; acetonitrile, anionic form): 519 nm
- Emis. peak ([1]; acetonitrile, anionic form): 542 nm
- Abs. peak ([1]; acetonitrile, neutral form): 392 nm
- Emis. peak ([1]; acetonitrile, neutral form): 460 nm
- ext. coef. ([1]; acetonitrile, neutral form): 26000 M⁻¹ cm⁻¹
- shift of emission and absorption spectra with change of more polar solvent (water) to less polar (ethanol, acetonitrile) ([1]; anionic form): bathochromic shift
- Abs. peak ([1]; ethanol, anionic form): 503 nm
- Emis. peak ([1]; ethanol, anionic form): 538 nm
- ext. coef. ([1]; ethanol, anionic form): 45000 M⁻¹ cm⁻¹
- Abs. peak ([1]; ethanol, neutral form): 400 nm
- ext. coef. ([1]; ethanol, neutral form): 21000 M⁻¹ cm⁻¹
- Emis. peak ([1]; ethanol, neutral form line, starred: only emission of deprotonated form can be measured due to high photoacidity): 538* nm
- shift of emission and absorption spectra with change of more polar solvent (water) to less polar (ethanol, acetonitrile) ([1]; neutral form): hypsochromic shift
- Abs. peak ([1]; water, anionic form): 484 nm
- Emis. peak ([1]; water, anionic form): 532 nm
- ext. coef. ([1]; water, anionic form): 44400 M⁻¹ cm⁻¹
- Abs. peak ([1]; water, neutral form): 400 nm
- ext. coef. ([1]; water, neutral form): 32000 M⁻¹ cm⁻¹
- Emis. peak [1, 7]: 532* nm
- Quantum yield of fluorescence ([2]; water, anionic form): 0.73
- pKa ([5]; excited state): < 0
- pKa* ([5]; excited state, listed as (Z)-4-(2-(difluoroboryl)-3,5-difluoro-4-hydroxybenzylidene)-1,2-dimethyl-1H-imid): lies in the negative region
- pKa* ([5]; excited state, listed as diF-p-HOBDI-BF2): in the range of negative values
- pKa ([5]; ground state, phenol group): 5.2
- solubility at 5 h [4, 8]: ~1000 µM (≈ 300 µg/mL)
- solubility at 5 h [4, 9]: 1 µM (≈ 0.3 µg/mL)
Compound: CC1=N/C(=C\c2cc(F)c(O)c(F)c2B(F)F)C(=O)N1C [di-F-p-HOBDI-BF2, (Z)-4-(2-(difluoroboryl)-3,5-difluoro-4-hydroxybenzylidene)-1,2-dimethyl-1H-imidazole-5(4H)-one]

- Abs. peak ([1]; acetonitrile, anionic form): 521 nm
- Emis. peak ([1]; acetonitrile, anionic form): 540 nm
- Abs. peak ([1]; acetonitrile, neutral form): 402 nm
- Emis. peak ([1]; acetonitrile, neutral form): 469 nm
- ext. coef. ([1]; acetonitrile, neutral form): 31000 M⁻¹ cm⁻¹
- shift of emission and absorption spectra with change of more polar solvent (water) to less polar (ethanol, acetonitrile) ([1]; anionic form): bathochromic shift
- bathochromic shift of emission and absorption spectra relative to p-HOBDI ([1]; different solvents): 30-40 nm
- Abs. peak ([1]; ethanol, anionic form): 512 nm
- Emis. peak ([1]; ethanol, anionic form): 532 nm
- ext. coef. ([1]; ethanol, anionic form): 55000 M⁻¹ cm⁻¹
- Abs. peak ([1]; ethanol, neutral form): 416 nm
- Emis. peak ([1]; ethanol, neutral form): 483 nm
- ext. coef. ([1]; ethanol, neutral form): 25000 M⁻¹ cm⁻¹
- shift of emission and absorption spectra with change of more polar solvent (water) to less polar (ethanol, acetonitrile) ([1]; neutral form): hypsochromic shift
- Abs. peak ([1]; water, anionic form): 485 nm
- Emis. peak ([1]; water, anionic form): 520 nm
- ext. coef. ([1]; water, anionic form): 47000 M⁻¹ cm⁻¹
- Abs. peak ([1]; water, neutral form): 404 nm
- Emis. peak ([1]; water, neutral form): 485 nm
- ext. coef. ([1]; water, neutral form): 26000 M⁻¹ cm⁻¹
- Quantum yield of fluorescence ([2]; acetonitrile): 0.73
- fluorescence lifetime ([2]; acetonitrile): 3.2 ns
- Quantum yield of fluorescence ([2]; acetonitrile, anionic form): 0.73
- Quantum yield of fluorescence ([2]; water, anionic form): 0.54
- pKa ([5]; excited state): 2
- pKa ([5]; ground state, phenol group): 6.4
- solubility at 5 h [4, 8]: ~1000 µM (≈ 264 µg/mL)
- solubility at 5 h [4, 9]: 1 µM (≈ 0.264 µg/mL)
- effect of incubation on absorption and emission spectra [6]: doesn't affect significantly
Compound: CC1=N/C(=C\c2ccc(O)cc2B(F)F)C(=O)N1C [p-HOBDI-BF2, (Z)-4-(2-(difluoroboryl)-4-hydroxybenzylidene)-1,2-dimethyl-1H-imidazole-5(4H)-one]

- shift of emission and absorption spectra with change of more polar solvent (water) to less polar (ethanol, acetonitrile) [1]: hypsochromic shift
- Abs. peak ([1]; acetonitrile): 483 nm
- Emis. peak ([1]; acetonitrile): 551 nm
- Abs. peak ([1]; ethanol): 498 nm
- Emis. peak ([1]; ethanol): 557 nm
- Abs. peak ([1]; water): 507 nm
- Emis. peak ([1]; water): 565 nm
- Quantum yield of fluorescence ([2]; acetonitrile): 0.49
- Quantum yield of fluorescence ([2]; ethanol): 0.31
- Quantum yield of fluorescence ([2]; water): 0.05
Compound: CC1=N/C(=C\c2ccc(N(C)C)cc2B(F)F)C(=O)N1C [p-dimethylamino-BDI-BF2, (Z)-4-(4-(dimethylamino)-2-(difluoroboryl)benzylidene)-1,2-dimethyl-1H-imidazole-5(4H)-one]
